Literature values in patent US20130165511A1, “TREATMENT FOR COCAINE ADDICTION” (priority 2010, published 2013).

Assays:
[1] = molecular target: T1, ALDH-I (Homo sapiens, UniProt P05091)
T1 sequence (P05091 18-517): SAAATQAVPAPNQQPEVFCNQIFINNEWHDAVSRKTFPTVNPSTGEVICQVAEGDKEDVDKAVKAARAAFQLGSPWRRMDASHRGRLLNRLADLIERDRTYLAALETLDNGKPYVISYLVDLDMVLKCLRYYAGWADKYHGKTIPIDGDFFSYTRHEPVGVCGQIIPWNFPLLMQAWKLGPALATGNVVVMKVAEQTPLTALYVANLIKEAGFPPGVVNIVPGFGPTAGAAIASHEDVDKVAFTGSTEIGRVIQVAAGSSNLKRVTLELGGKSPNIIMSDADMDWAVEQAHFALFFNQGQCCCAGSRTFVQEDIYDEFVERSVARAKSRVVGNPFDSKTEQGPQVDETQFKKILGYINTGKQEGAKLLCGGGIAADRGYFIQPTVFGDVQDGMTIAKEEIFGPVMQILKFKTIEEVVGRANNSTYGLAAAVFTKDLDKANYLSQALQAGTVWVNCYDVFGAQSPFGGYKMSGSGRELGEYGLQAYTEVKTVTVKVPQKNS

[2] = molecular target: T2, CYP2B6 (Homo sapiens, UniProt P20813)
T2 sequence (P20813 1-491): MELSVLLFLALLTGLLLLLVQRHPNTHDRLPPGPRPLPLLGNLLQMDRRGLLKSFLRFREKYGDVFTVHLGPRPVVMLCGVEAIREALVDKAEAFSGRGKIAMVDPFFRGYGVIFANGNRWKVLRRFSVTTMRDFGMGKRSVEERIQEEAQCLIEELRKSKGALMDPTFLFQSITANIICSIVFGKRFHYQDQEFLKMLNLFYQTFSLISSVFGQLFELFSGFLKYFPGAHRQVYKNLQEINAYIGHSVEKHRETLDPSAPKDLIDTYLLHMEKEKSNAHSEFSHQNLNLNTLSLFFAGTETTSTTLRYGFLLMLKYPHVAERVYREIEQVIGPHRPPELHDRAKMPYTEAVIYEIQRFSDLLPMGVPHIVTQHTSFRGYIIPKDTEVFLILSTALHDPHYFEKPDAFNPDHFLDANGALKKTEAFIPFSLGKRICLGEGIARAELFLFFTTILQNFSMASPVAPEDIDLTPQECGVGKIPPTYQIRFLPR

[3] = molecular target: CYP2C19 (Homo sapiens, UniProt P33261)
[4] = molecular target: CYP2D6 (Homo sapiens, UniProt P10635)
[5] = molecular target: T3, ALDH-II (Homo sapiens, UniProt P00352)
T3 sequence (P00352 1-501): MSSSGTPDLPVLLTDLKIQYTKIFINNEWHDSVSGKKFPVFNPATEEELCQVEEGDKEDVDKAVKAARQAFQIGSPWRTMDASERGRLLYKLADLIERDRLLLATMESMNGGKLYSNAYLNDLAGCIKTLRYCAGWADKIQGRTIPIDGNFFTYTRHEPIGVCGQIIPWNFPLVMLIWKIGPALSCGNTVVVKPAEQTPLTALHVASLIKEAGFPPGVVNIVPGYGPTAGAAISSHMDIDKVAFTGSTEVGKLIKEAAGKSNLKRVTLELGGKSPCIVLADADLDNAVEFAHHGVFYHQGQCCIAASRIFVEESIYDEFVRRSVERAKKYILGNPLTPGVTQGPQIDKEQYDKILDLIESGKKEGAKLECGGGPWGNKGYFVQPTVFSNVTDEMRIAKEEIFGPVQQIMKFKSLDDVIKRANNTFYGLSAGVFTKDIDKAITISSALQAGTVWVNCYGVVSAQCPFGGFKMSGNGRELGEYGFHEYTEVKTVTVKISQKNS

[6] = animal studies, dosage range 0.001-1.0 mg/kg
[7] = 10 mg CR, double-blind randomized study of 134 subjects with cocaine dependence, post hoc analyses
[8] = system: ALDH; details: rat studies
[9] = rat studies

Sequence of CYP2D6 (P10635 whole entry): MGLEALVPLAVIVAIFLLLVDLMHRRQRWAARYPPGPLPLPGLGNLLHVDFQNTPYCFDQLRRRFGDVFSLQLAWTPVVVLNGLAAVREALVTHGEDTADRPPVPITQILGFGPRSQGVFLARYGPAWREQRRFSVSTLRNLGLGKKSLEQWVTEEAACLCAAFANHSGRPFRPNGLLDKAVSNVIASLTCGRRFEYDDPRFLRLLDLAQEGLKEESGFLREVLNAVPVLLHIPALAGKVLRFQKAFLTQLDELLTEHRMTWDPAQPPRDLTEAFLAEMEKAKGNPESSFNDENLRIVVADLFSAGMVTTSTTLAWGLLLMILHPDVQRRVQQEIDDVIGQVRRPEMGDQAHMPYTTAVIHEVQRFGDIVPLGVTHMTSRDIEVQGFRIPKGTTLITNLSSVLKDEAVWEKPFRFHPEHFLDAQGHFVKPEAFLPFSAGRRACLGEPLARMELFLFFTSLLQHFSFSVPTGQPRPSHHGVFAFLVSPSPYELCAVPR
Sequence of CYP2C19 (P33261 whole entry): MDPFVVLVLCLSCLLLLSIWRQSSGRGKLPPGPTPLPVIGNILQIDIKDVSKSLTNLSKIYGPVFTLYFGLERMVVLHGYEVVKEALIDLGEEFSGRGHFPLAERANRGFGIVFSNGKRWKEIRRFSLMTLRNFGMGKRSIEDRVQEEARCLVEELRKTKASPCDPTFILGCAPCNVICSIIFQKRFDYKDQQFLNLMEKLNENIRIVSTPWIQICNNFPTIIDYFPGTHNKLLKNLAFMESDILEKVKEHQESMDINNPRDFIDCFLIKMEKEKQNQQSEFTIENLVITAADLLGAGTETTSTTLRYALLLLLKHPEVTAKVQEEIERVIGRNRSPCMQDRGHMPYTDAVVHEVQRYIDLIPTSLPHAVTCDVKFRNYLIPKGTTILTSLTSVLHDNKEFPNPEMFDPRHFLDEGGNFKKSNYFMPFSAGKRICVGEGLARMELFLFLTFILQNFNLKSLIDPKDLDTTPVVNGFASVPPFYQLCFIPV

O=c1c(-c2ccc(O)cc2)coc2cc(O[C@@H]3O[C@H](CO)[C@@H](O)[C@H](O)[C@H]3O)ccc12 [Daidzin, daidzin]
inhibition of ALDH-I [1]: selective potent reversible inhibitor

C#CCNC(C)Cc1ccccc1 (centres unmarked) [N-des methyl selegiline]
inhibition of CYP2B6 [2]: concentration dependent inhibition
inhibition of CYP2C19 [3]: concentration dependent inhibition
inhibition of CYP2D6 [4]: concentration dependent inhibition

N#CN [cyanamide]
inhibition of ALDH-I in vitro ([1]; in vitro): unable to inhibit
inhibition of ALDH-II in vitro [5]: unable to inhibit

C#CCN(C)[C@H](C)Cc1ccccc1 [selegiline]
inhibition of CYP2B6 [2]: concentration dependent inhibition
self-reported 'high' and 'stimulated' feelings after cocaine administration, area under the curve (10 mg CR formulation, eight subjects): decreased
reduction in subjective euphoria (selegiline 10 mg po/day followed by acute cocaine infusion, PET study): 40%
inhibition of CYP2D6 [4]: concentration dependent inhibition
safety and abuse potential [6]: safe agent without potential abuse
composite score of urine benzoylecgonine (BE), self report and observed improvement [7]: statistically significant effect

N5-(hydroxycyclopropyl)-L-glutamine [coprine]
ALDH inhibition compared to disulfiram [8]: more potent inhibitor
ethanol consumption [9]: effectively suppressed
